Experimental data published in patent publication US20120076785A1, “METHOD FOR INHIBITING NEURODEGENERATION” (GENENTECH, INC., priority 2009, published 2012).
Where a SMILES comes first, the peptide text is derived from it. The star is where a group is joined. Cbz = O=C(OCc1ccccc1)*; CH2F = FC*

Assays:
commissural neurons = assay: dorsal spinal cord survival assay (commissural explant cultures); type: cell-based, rat
Procedure: To examine functional roles of DR6 in axonal degeneration and programmed cell death of commissural neurons, an RNAi-based dorsal spinal cord survival assay (Kennedy et al., Cell, 78:425-435 (1994); Wang et al., supra, 1999) was conducted (see FIG. 3). E13 rat or E11.5 mouse embryos were placed in L15 medium (Gibco) and siRNAs (IDT) together with green fluorescent protein (“GFP”)-encoding plasmids were injected into the neural tubes. The siRNAs and plasmids were then delivered to dorsal progenitor cells by electroporation. Dorsal spinal cord explants were dissected out, embedded into a 3D-collagen gel matrix, and cultured in Opti-MEM/F12 medium (Invitrogen) with recombinant netrin-1 ([…]) and 5% horse serum (Sigma) at 37° C. in a 5% CO2 environment. Within 16 hours in response to chemo-attractant netrin-1, commissural axons grow out of the explant into the collagen matrix gel (Kennedy et al., supra, 1994). Commissural axons are visualized by GFP fluorescence by observation using an inverted microscope.
Materials and methods used to generate the data shown in this figure are as follows. To investigate physiological roles of DR6 receptor in axonal degeneration and programmed cell death of commissural neurons, a dorsal spinal cord survival assay according to protocols known in the art (Kennedy et al., Cell 78:425-435 (1994); Wang et al., Nature 401:765-769 (1999)) was performed (with data shown in FIG. 4B). E13 rat embryos were placed in L15 medium (Gibco) and injected into their neural tubes with the following siRNA constructs (FIG. 4B):
Control non-targeting, or targeting DR6 siRNA #2, or targeting DR6 siRNA #3 (IDT) together with either wild-type or mis-match DR6 cDNA and GFP-encoding plasmids. DR6 cDNA and GFP cDNA were subcloned into pCAGGS vector backbone (commercially available from BCCM/LMBP). siRNAs and plasmids were then delivered to dorsal progenitor cells by electroporation. Dorsal spinal cord explants were then dissected out, embedded into a 3D collagen gel matrix and cultured in Opti-MEM/F12 medium (Invitrogen) with recombinant netrin-1 and 5% horse serum (Sigma) at 37° C. in a 5% CO2 environment. Within 16 hours in response to chemo-attractant netrin-1 commissural axons grow out of the explant into the collagen matrix gel (Kennedy et al., Cell 78:425-435 (1994). Commissural axons are visualized by GFP fluorescence by observation using inverted microscope. After 48 hours in culture in the absence of trophic factor support derived from the floorplate, commissural neurons undergo programmed cell death and their axons degenerate (Wang et al., Nature, 401:765-769 (1999)) (FIG. 4B). However, the axonal degeneration program can be blocked by introduction of a targeting DR6-specific siRNA #3 (FIG. 4B). The specific, on-target effect of DR6-specific siRNA #3 is further confirmed in a rescue experiment in which axonal degeneration phenotype is restored by co-expression of the siRNA#3-resistant mis-match DR6 cDNA construct together with DR6 siRNA #3 (FIG. 4B). Presented experimental evidence establishes that DR6 receptor function is required for axonal degeneration and death of commissural neurons upon withdrawal from their intermediate target, the floorplate of the spinal cord.
A dorsal spinal cord survival assay (as described in Example 2 above) was conducted using anti-DR6 antibodies. Microscopic observation (using green fluorescence channel for GFP) was employed to visualize commissural axons. […]

sensory axons = assay: NGF deprivation assay in Campenot chambers (local sensory axon degeneration); type: cell-based, mouse; conditions: for sensory axonal degeneration induced by NGF withdrawal: 30 μg/ml hDR6-ECD-Fc in axonal compartment, 0 to 24 hours
Procedure: Materials and methods used to generate the data shown in this figure are as follows. To examine whether ligand is required for DR6 function in sensory axonal degeneration, a compartmented culture analysis of sensory axon growth and degeneration was carried out as follows. A Campenot nerve cell chamber system was used to isolate neuronal processes (axons) from the cell bodies in different compartments (separate fluid environments), analogous to neuronal cell bodies in one location of the nervous system projecting their axons to a distal target in another location. The assay was carried out as originally described by Campenot (Campenot et al., J. Neurosci. 11(4): 1126-39 (1991)) with the following modifications. Briefly, 35-mm tissue culture dishes were coated with PDL/Laminin and scratched with a pin rake (Tyler Research) to generate tracks, as illustrated for example in FIGS. 1 and 4 of Campenot et al., supra.
A drop of culture medium (Neurobasal medium with B27 supplement, 25 ng/ml of NGF, and 4 g/L of methylcellulose) was placed on the scratched substratum. A Teflon divider (Tyler Research) was seated on silicone grease and a dab of silicone grease was placed at the mouth of the center slot. Dissociated sensory neurons derived from E12.5 mouse DRGs were suspended in methylcellulose-thickened medium and loaded into a disposable sterile syringe fitted with a 22-gauge needle. This cell suspension was injected into the center slots of each compartmented dish under the dissecting microscope. The neurons were allowed to settle overnight. […]
To trigger local axonal degeneration, NGF-containing medium from axonal compartments was substituted with neurobasal medium with an NGF blocking antibody (anti-NGF, Genentech, Inc., 20 ug/ml). Zero hours, 6 hours, or 24 to 48 hours following NGF deprivation, sensory neurons were fixed in 4% PFA for 30 minutes at room temperature and processed for immunofluorescence staining with axonal marker TUJ-1 (Covance, 1:500 dilution) to visualize degenerating axons by fluorescence microscopy (FIG. 11B) (as above described in Example 7). […]
To examine whether ligand is required for DR6 function in axonal degeneration program triggered by NGF withdrawal, 30 μg/ml of hDR6-ECD-Fc immunoadhesin protein (described in Example 3 above) or 30 μg/ml of a control Fc (Genentech, Inc.) was included together with anti-NGF treatment in axonal compartments of Campenot Chambers. Zero to 24 hours after NGF deprivation, axons in Campenot Chambers were fixed with 4% PFA/PBS and visualized by immuno-fluorescence staining with TUJ-1 (1:500, Covance)/secondary antibody conjugated to a fluorescence group Alexa 488 (Molecular Probes, BD) (FIG. 11B). […]

[1] = system: DR6-AP binding sites on BAX null sensory axons; assay: in situ DR6-AP sensory axon binding assay; type: cell-based, mouse; conditions: BACE inhibitor 1 uM; BAX null E12.5 sensory axons
Procedure: For the in situ DR6-AP sensory axon binding assay, either wild-type or Bax null sensory explants were cultured in Neurobasal medium/B27 (Invitrogen) as outlined in the Examples 7-8 above, with 50 ng/mlNGF (Roche). Two days post-plating, DRG explants were either left untreated or deprived from NGF as described above in Examples 7-8. Bax inhibitory peptide was added where indicated on FIG. 12B (10 uM, Bax-V5, Tocris). Twelve hours post-NGF deprivation, DRG explants were washed twice with the binding buffer (HBSS, Gibco Cat. No. 14175-095, with 0.2% BSA, 0.1% NaN3, 5 mM CaCl2, 1 mM MgCl2, 20 mM HEPES, pH=7.0). AP binding assay was then carried out by making a 1:1 mixture of DR6-AP conditioned medium and the binding buffer (or control AP conditioned medium and the binding buffer), which was applied directly to DRG explants in 8-well culture slides (Becton, Dickinson and Company) and incubated for 90 minutes at room temperature.
Following the incubation, unbound DR6-AP proteins were washed away by rinsing DRG explants five times with the binding buffer. DRG explants were then fixed with 3.7% formaldehyde diluted in PBS, for 12 minutes at room temperature. The remaining formaldehyde was removed by rinsing DRG explants 3 times with HBS buffer (20 mM HEPES pH=7.0, 150 mM NaCl). Endogenous AP activity was blocked by heat inactivation at 65° C. in HBS buffer for 30 minutes. […]

[2] = biological target: p75 (as used in the ELISA and in general statements); assay: ELISA, format not described (data not shown)

hDR6-ECD-Fc: human DR6 extracellular domain sequence fused with Fc, SEQ ID NO: 4
commissural axon degeneration (commissural neurons; 30 μg/ml and 10 μg/ml hDR6-ECD-Fc, 48 hours): delayed
sensory axonal degeneration induced by NGF withdrawal (sensory axons): delayed the onset of axonal degeneration
sensory axonal degeneration induced by NGF withdrawal (sensory axons; listed as DR6-Fc): delayed

Abeta: recombinant human Beta amyloid amino acids 1-42, Chemicon
induction of commissural axonal degeneration (commissural neurons; Abeta 1-42 3 μM added 24 hours after plating with BACE inhibitor 1 uM): axonal degeneration triggered

5′-CAAUAGGUCAGGAAGAUGGCU-3′ [DR6-specific siRNA #3]
axonal degeneration of commissural neurons (commissural neurons; siRNA electroporated, 48 hours in culture without floorplate trophic support): blocked

CC[C@H](C)[C@H](NC(=O)OCc1ccccc1)C(=O)N[C@@H](CCC(=O)OC)C(=O)N[C@H](C(=O)N[C@@H](CC(=O)OC)C(=O)CF)[C@@H](C)O [Z-IETD-FMK] (Cbz-IE(OMe)TD(OMe)-CH2F)
axonal degeneration after NGF deprivation (sensory axons; 24 hours anti-NGF, SP 600125 1 uM, Z-IETD-FMK 10 uM, Z-DEVD-FMK 10 uM): delayed

(L)-HIV-TAT48-57-PP-JBD20 [L-JNK-I]
stereotyped degeneration of commissural neurons in DSC explant cultures (commissural neurons; JNK inhibitor at 10 μM, 48 hr, no trophic factor, listed as L-JNKI-1): largely blocks stereotyped degeneration
axonal degeneration of commissural neurons (commissural neurons; peptide JNK inhibitor at 1 μM): partially blocked axonal degeneration

OM99-2
axonal degeneration after NGF deprivation (sensory axons; BACE inhibitor 1 uM): blocked
disappearance of DR6-AP binding sites from sensory axons following NGF withdrawal [1]: block the disappearance of DR6-AP binding sites

APP (as used in the p75 ELISA) (from UniProt P05067 18-286) (ligand)
EC50 [2]: 300 nM
